Test results published in patent US20250051300A1, “GRAM-NEGATIVE SPECIFIC ANTIBIOTICS SPARING EFFECT ON GUT MICROBIOME” (THE BOARD OF TRUSTEES OF THE UNIVERSITY OF ILLINOIS, priority 2021, published 2025).
Converted amounts (≈) assume the structure as drawn. Like-named read-outs stand apart in the source and are kept apart here.

Tests used:
[1] = Mouse maximum tolerated dose / tolerability; assay type: in vivo; details: IP
Protocol: Mouse maximum tolerated dose (MTD) of compound 2 and lolamycin. […] In these studies, 10- to 12-week-old female C57BL/6 mice purchased from Charles River Laboratories were used. The maximum tolerated dose (MTD) of a single compound via IP injection was determined first. Compound 2 and lolamycin were formulated in 50% DMSO, 50% PEG400. Compound 2 and lolamycin were given by intraperitoneal (IP) injection. All the mice were monitored for signs of toxicity for 2 weeks. For multiple doses, the compound was given by daily IP injection for 5 consecutive days and the mice were monitored for signs of toxicity for 1 month. The MTD was the highest dosage with acceptable toxicity (for example, <20% weight loss).
Next, the MTD of lolamycin via oral gavage was determined. Lolamycin was formulated in 20% DMSO, 30% Water, and 50% PEG400. Lolamycin was given via oral gavage. All the mice were monitored for signs of toxicity for 2 weeks. For multiple doses, compound was given twice daily orally for 3 consecutive days and the mice were monitored for signs of toxicity. The MTD was the highest dosage with acceptable toxicity (for example, <20% weight loss). […] The MTD of lolamycin was used to inform the dosing schedule used in subsequent efficacy studies.

[2] = test system: Klebsiella pneumoniae; assay: MIC, micro-dilution broth method (CLSI); assay type: cell-based
[3] = test system: E. coli AR0349; assay: Bacterial sepsis survival model; assay type: in vivo, CD-1 mice; details: 100 mg/kg IP twice daily for 3 days
[4] = test system: Escherichia coli; assay: MIC, micro-dilution broth method (CLSI); assay type: cell-based

For `Fc1ccc(COc2cccc(-c3n[nH]cc3-c3ccncc3)c2)cc1` [Compound 2, 4-(3-(3-((4-fluorobenzyl)oxy)phenyl)-1H-pyrazol-4-yl)pyridine], the tolerability ([1]; C57BL/6 mice, daily dosing of 200 mg/kg for 5 consecutive days) was “well tolerated”, the tolerability ([1]; C57BL/6 mice, single dose of 200 mg/kg) was “well tolerated” and the tolerability ([1]; mice, 100 mg/kg twice a day for three days) was “well-tolerated”. The MIC ([2]; K. pneumoniae AR-0040) was over 32 µg/mL, the MIC ([2]; K. pneumoniae ATCC BAA-1705) was over 32 µg/mL and the MIC ([2]; Klebsiella pneumoniae, ATCC27736, K. pneumoniae ATCC 27736, read-out: MIC) was over 32 µg/mL. It also gave an MIC ([2]; Klebsiella pneumoniae, ATCCBAA1705, K. pneumoniae ATCC BAA-1705, read-out: MIC) of over 32 µg/mL, an MIC ([2]; Klebsiella pneumoniae, ATCCBAA2146, K. pneumoniae ATCC BAA-2146, read-out: MIC) of over 32 µg/mL and an MIC ([2]; Klebsiella pneumoniae, ATCCBAA2342, K. pneumoniae ATCC BAA-2342, read-out: MIC) of over 32 µg/mL. The MIC ([2]; Klebsiella pneumoniae, ATCCBAA2470, K. pneumoniae ATCC BAA-2470, read-out: MIC) was over 32 µg/mL, the MIC ([2]; Klebsiella pneumoniae, ATCCBAA2472, K. pneumoniae ATCC BAA-2472, read-out: MIC) was over 32 µg/mL and the MIC ([2]; Klebsiella pneumoniae, ATCCBAA2473, K. pneumoniae ATCC BAA-2473, read-out: MIC) was over 32 µg/mL. It also gave an MIC ([2]; Klebsiella pneumoniae, K. pneumoniae AR0034, read-out: MIC) of over 32 µg/mL, an MIC ([2]; Klebsiella pneumoniae, K. pneumoniae AR0039, read-out: MIC) of over 32 µg/mL and an MIC ([2]; Klebsiella pneumoniae, K. pneumoniae AR0041, read-out: MIC) of over 32 µg/mL. For the same compound, the MIC ([2]; Klebsiella pneumoniae, K. pneumoniae AR0042, read-out: MIC) was over 32 µg/mL, the MIC ([2]; Klebsiella pneumoniae, K. pneumoniae AR0043, read-out: MIC) was over 32 µg/mL and the MIC ([2]; Klebsiella pneumoniae, K. pneumoniae AR0044, read-out: MIC) was over 32 µg/mL. The MIC ([2]; Klebsiella pneumoniae, K. pneumoniae AR0046, read-out: MIC) was over 32 µg/mL, the MIC ([2]; Klebsiella pneumoniae, K. pneumoniae AR0047, read-out: MIC) was over 32 µg/mL and the MIC ([2]; Klebsiella pneumoniae, K. pneumoniae AR0049, read-out: MIC) was over 32 µg/mL. For the same compound, the MIC ([2]; Klebsiella pneumoniae, K. pneumoniae AR0066, read-out: MIC) was over 32 µg/mL, the MIC ([2]; Klebsiella pneumoniae, K. pneumoniae AR0068, read-out: MIC) was over 32 µg/mL and the MIC ([2]; Klebsiella pneumoniae, K. pneumoniae AR0075, read-out: MIC) was over 32 µg/mL. For the same compound, the MIC ([2]; Klebsiella pneumoniae, K. pneumoniae AR0076, read-out: MIC) was over 32 µg/mL, the MIC ([2]; Klebsiella pneumoniae, K. pneumoniae AR0079, read-out: MIC) was over 32 µg/mL and the MIC ([2]; Klebsiella pneumoniae, K. pneumoniae AR0080, read-out: MIC) was over 32 µg/mL. For the same compound, the MIC ([2]; Klebsiella pneumoniae, K. pneumoniae AR0087, read-out: MIC) was over 32 µg/mL, the MIC ([2]; Klebsiella pneumoniae, K. pneumoniae AR0098, read-out: MIC) was over 32 µg/mL and the MIC ([2]; Klebsiella pneumoniae, K. pneumoniae AR0106, read-out: MIC) was over 32 µg/mL. The MIC ([2]; Klebsiella pneumoniae, K. pneumoniae AR0107, read-out: MIC) was over 32 µg/mL, the MIC ([2]; Klebsiella pneumoniae, K. pneumoniae AR0109, read-out: MIC) was over 32 µg/mL and the MIC ([2]; Klebsiella pneumoniae, K. pneumoniae AR0112, read-out: MIC) was over 32 µg/mL. For the same compound, the MIC ([2]; Klebsiella pneumoniae, K. pneumoniae AR0113, read-out: MIC) was over 32 µg/mL, the MIC ([2]; Klebsiella pneumoniae, K. pneumoniae AR0115, read-out: MIC) was over 32 µg/mL and the MIC ([2]; Klebsiella pneumoniae, K. pneumoniae AR0117, read-out: MIC) was over 32 µg/mL. It also gave an MIC ([2]; Klebsiella pneumoniae, K. pneumoniae AR0120, read-out: MIC) of over 32 µg/mL, an MIC ([2]; Klebsiella pneumoniae, K. pneumoniae AR0125, read-out: MIC) of over 32 µg/mL and an MIC ([2]; Klebsiella pneumoniae, K. pneumoniae AR0126, read-out: MIC) of over 32 µg/mL. For the same compound, the MIC ([2]; Klebsiella pneumoniae, K. pneumoniae AR0129, read-out: MIC) was over 32 µg/mL, the MIC ([2]; Klebsiella pneumoniae, K. pneumoniae AR0135, read-out: MIC) was over 32 µg/mL and the MIC ([2]; Klebsiella pneumoniae, K. pneumoniae AR0138, read-out: MIC) was over 32 µg/mL. It also gave an MIC ([2]; Klebsiella pneumoniae, K. pneumoniae AR0139, read-out: MIC) of over 32 µg/mL, an MIC ([2]; Klebsiella pneumoniae, K. pneumoniae AR0140, read-out: MIC) of over 32 µg/mL and an MIC ([2]; Klebsiella pneumoniae, K. pneumoniae AR0141, read-out: MIC) of over 32 µg/mL. The MIC ([2]; Klebsiella pneumoniae, K. pneumoniae AR0142, read-out: MIC) was over 32 µg/mL, the MIC ([2]; Klebsiella pneumoniae, K. pneumoniae AR0143, read-out: MIC) was over 32 µg/mL and the MIC ([2]; Klebsiella pneumoniae, K. pneumoniae AR0145, read-out: MIC) was over 32 µg/mL. It also gave an MIC ([2]; Klebsiella pneumoniae, K. pneumoniae AR0146, read-out: MIC) of over 32 µg/mL, an MIC ([2]; Klebsiella pneumoniae, K. pneumoniae AR0148, read-out: MIC) of over 32 µg/mL and an MIC ([2]; Klebsiella pneumoniae, K. pneumoniae AR0152, read-out: MIC) of over 32 µg/mL. It also gave an MIC ([2]; Klebsiella pneumoniae, K. pneumoniae AR0153, read-out: MIC) of over 32 µg/mL, an MIC ([2]; Klebsiella pneumoniae, K. pneumoniae AR0158, read-out: MIC) of over 32 µg/mL and an MIC ([2]; Klebsiella pneumoniae, K. pneumoniae AR0160, read-out: MIC) of over 32 µg/mL. For the same compound, the MIC ([2]; Klebsiella pneumoniae, K. pneumoniae AR0347, read-out: MIC) was over 32 µg/mL, the MIC ([2]; Klebsiella pneumoniae, K. pneumoniae AR0542, read-out: MIC) was over 32 µg/mL and the MIC ([2]; Klebsiella pneumoniae, K. pneumoniae AR0548, read-out: MIC) was over 32 µg/mL. It also gave an MIC ([2]; Klebsiella pneumoniae, K. pneumoniae AR0550, read-out: MIC) of over 32 µg/mL, an MIC ([2]; Klebsiella pneumoniae, K. pneumoniae AR0552, read-out: MIC) of over 32 µg/mL and an MIC ([2]; Klebsiella pneumoniae, K. pneumoniae AR0553, read-out: MIC) of over 32 µg/mL. For the same compound, the MIC ([2]; Klebsiella pneumoniae, K. pneumoniae AR0554, read-out: MIC) was over 32 µg/mL, the MIC ([2]; Klebsiella pneumoniae, K. pneumoniae AR0555, read-out: MIC) was over 32 µg/mL and the MIC ([2]; Klebsiella pneumoniae, K. pneumoniae AR-0040, read-out: MIC) was over 32 µg/mL. The “mice with septic infection rescued (survival)” value [3] was “fared poorly”, the MIC ([4]; E. coli AR-0349 (colistin-resistant clinical isolate)) was over 32 µg/mL and the MIC ([4]; E. coli AR-0549) was over 32 µg/mL. For the same compound, the MIC ([4]; Escherichia coli, ATCC25922, E. coli ATCC 25922, read-out: MIC) was 8 µg/mL (≈ 23.2 µM), the MIC ([4]; Escherichia coli, ATCCBAA2340, E. coli ATCC BAA-2340, read-out: MIC) was over 32 µg/mL and the MIC ([4]; Escherichia coli, ATCCBAA2469, E. coli ATCC BAA-2469, read-out: MIC) was over 32 µg/mL.
